According to ChEMBL document CHEMBL1133820, “Total synthesis and antifungal activity of 9-methoxystrobilurin L as the originally proposed 1,4-benzodioxan structure” (2001):
The source made the active and inactive calls. No cut-off for these calls is given here.

Tests used:
Candida albicans [1] = experiment: Antifungal activity against Candida albicans determined as diameter of inhibition zone at a concentration of 10 ug/disk (expt 1); format: functional, organism-based
Aspergillus fumigatus [2] = experiment: Antifungal activity against Aspergillus fumigatus determined as diameter of inhibition zone at a concentration of 10 ug/disk (expt 1); format: functional, organism-based
Penicillium citrinum [3] = experiment: Antifungal activity against Penicillium citrium determined as diameter of inhibition zone at a concentration of 10 ug/disk (expt 2); Not effective; format: functional, organism-based
Candida albicans [4] = experiment: Antifungal activity against Candida albicans determined as diameter of inhibition zone at a concentration of 10 ug/disk (expt 2); format: functional, organism-based
Saccharomyces cerevisiae [5] = experiment: Antifungal activity against Saccharomyces cerevisiae determined as diameter of inhibition zone at a concentration of 10 ug/disk (expt 2); format: functional, organism-based
Aspergillus fumigatus [6] = experiment: Antifungal activity against Aspergillus fumigatus determined as diameter of inhibition zone at a concentration of 10 ug/disk (expt 2); format: functional, organism-based
Saccharomyces cerevisiae [7] = experiment: Antifungal activity against Saccharomyces cerevisiae determined as diameter of inhibition zone at a concentration of 10 ug/disk (expt 1); format: functional, organism-based
Penicillium citrinum [8] = experiment: Antifungal activity against Penicillium citrium determined as diameter of inhibition zone at a concentration of 10 ug/disk (expt 1); format: functional, organism-based
Fusarium solani [9] = experiment: Antifungal activity against Fusarium solani determined as diameter of inhibition zone at a concentration of 0.1 ug/disk; Not effective; format: functional, organism-based
Saccharomyces cerevisiae [10] = experiment: Antifungal activity against Saccharomyces cerevisiae determined as diameter of inhibition zone at a concentration of 0.1 ug/disk; Not effective; format: functional, organism-based
Saccharomyces cerevisiae [11] = experiment: Antifungal activity against Saccharomyces cerevisiae determined as diameter of inhibition zone at a concentration of 1 ug/disk; Slightly effective; format: functional, organism-based
Aspergillus fumigatus [12] = experiment: Antifungal activity against Aspergillus fumigatus determined as diameter of inhibition zone at a concentration of 0.1 ug/disk; Slightly effective; format: functional, organism-based
Candida albicans [13] = experiment: Antifungal activity against Candida albicans determined as diameter of inhibition zone at a concentration of 0.1 ug/disk; Not effective; format: functional, organism-based
Fusarium solani [14] = experiment: Antifungal activity against Fusarium solani determined as diameter of inhibition zone at a concentration of 10 ug/disk; Not effective; format: functional, organism-based
Fusarium solani [15] = experiment: Antifungal activity against Fusarium solani determined as diameter of inhibition zone at a concentration of 1 ug/disk; Not effective; format: functional, organism-based
Aspergillus fumigatus [16] = experiment: Antifungal activity against Aspergillus fumigatus determined as diameter of inhibition zone at a concentration of 10 ug/disk; format: functional
Penicillium citrinum [17] = experiment: Antifungal activity against Penicillium citrium determined as diameter of inhibition zone at a concentration of 10 ug/disk; Not effective; format: functional, organism-based
Penicillium citrinum [18] = experiment: Antifungal activity against Penicillium citrium determined as diameter of inhibition zone at a concentration of 0.1 ug/disk; Not effective; format: functional, organism-based
Penicillium citrinum [19] = experiment: Antifungal activity against Penicillium citrium determined as diameter of inhibition zone at a concentration of 1 ug/disk; Not effective; format: functional, organism-based
Aspergillus fumigatus [20] = experiment: Antifungal activity against Aspergillus fumigatus determined as diameter of inhibition zone at a concentration of 1 ug/disk; Slightly effective; format: functional, organism-based
Candida albicans [21] = experiment: Antifungal activity against Candida albicans determined as diameter of inhibition zone at a concentration of 10 ug/disk; format: functional
Saccharomyces cerevisiae [22] = experiment: Antifungal activity against Saccharomyces cerevisiae determined as diameter of inhibition zone at a concentration of 10 ug/disk; format: functional
Candida albicans [23] = experiment: Antifungal activity against Candida albicans determined as diameter of inhibition zone at a concentration of 1 ug/disk; Slightly effective; format: functional, organism-based
Candida albicans [24] = experiment: Antifungal activity against Candida albicans determined as diameter of inhibition zone at a concentration of 1 ug/disk; Not effective; format: functional, organism-based
Saccharomyces cerevisiae [25] = experiment: Antifungal activity against Saccharomyces cerevisiae determined as diameter of inhibition zone at a concentration of 1 ug/disk; Not effective; format: functional, organism-based
Saccharomyces cerevisiae [26] = experiment: Antifungal activity against Saccharomyces cerevisiae determined as diameter of inhibition zone at a concentration of 0.1 ug/disk; Slightly effective; format: functional, organism-based

Molecule | Diameter of inhibition zone (Fusarium solani [9]) | Diameter of inhibition zone (Saccharomyces cerevisiae [10]) | Diameter of inhibition zone (Aspergillus fumigatus [12]) | Diameter of inhibition zone (Candida albicans [13]) | Diameter of inhibition zone (Fusarium solani [15]) | Diameter of inhibition zone (Penicillium citrinum [17]) | Diameter of inhibition zone (Penicillium citrinum [18]) | Diameter of inhibition zone (Penicillium citrinum [19]) | further results
NYSTATIN | – | – | – | – | – | – | – | – | Diameter of inhibition zone (Candida albicans [1]): 16 mm; Diameter of inhibition zone (Aspergillus fumigatus [2]): 12 mm; Diameter of inhibition zone (Penicillium citrinum [3]): inactive; Diameter of inhibition zone (Candida albicans [4]): 10 mm; Diameter of inhibition zone (Saccharomyces cerevisiae [5]): 8 mm; Diameter of inhibition zone (Aspergillus fumigatus [6]): 8 mm; Diameter of inhibition zone (Saccharomyces cerevisiae [7]): 17 mm; Diameter of inhibition zone (Penicillium citrinum [8]): 10 mm
C=CC(C)(C)OC(C)(C)[C@H]1COc2ccc(/C=C/C(OC)=C(C)\C(=C/OC)C(=O)OC)cc2O1 | inactive | inactive | Slightly effective | inactive | inactive | inactive | inactive | inactive | Diameter of inhibition zone (Saccharomyces cerevisiae [11]): Slightly effective; Diameter of inhibition zone (Fusarium solani [14]): inactive; Diameter of inhibition zone (Aspergillus fumigatus [16]): 8 mm; Diameter of inhibition zone (Aspergillus fumigatus [20]): Slightly effective; Diameter of inhibition zone (Candida albicans [21]): 8 mm; Diameter of inhibition zone (Saccharomyces cerevisiae [22]): 8 mm; Diameter of inhibition zone (Candida albicans [23]): Slightly effective
C=CC(C)(C)OC(C)(C)[C@@H]1COc2ccc(/C=C/C(OC)=C(C)\C(=C/OC)C(=O)OC)cc2O1 | inactive | inactive | Slightly effective | inactive | inactive | inactive | inactive | inactive | Diameter of inhibition zone (Candida albicans [24]): inactive; Diameter of inhibition zone (Saccharomyces cerevisiae [25]): inactive
C=CC(C)(C)O[C@H]1COc2ccc(/C=C/C(OC)=C(C)\C(=C\OC)C(=O)OC)cc2OC1(C)C | inactive | – | Slightly effective | inactive | – | – | inactive | inactive | Diameter of inhibition zone (Saccharomyces cerevisiae [26]): Slightly effective
